One compound from article PMC7695371, “Mimetics of extra virgin olive oil phenols with anti-cancer stem cell activity” (Aging (Albany NY), 2020) can be followed below.

One test concerns the target T1, DNMT3A (Homo sapiens, UniProt Q9Y6K1).
T1 construct: recombinant, Reaction Biology Corp. HotSpot assay
Description: HotSpot radioisotope filter-binding methyltransferase assay, 10-dose. The class given is biochemical.

The target of a further test is FRAP1 (mTOR) (Homo sapiens, UniProt P42345). The test is described as follows: FRET-based Z-LYTE kinase assay, […] concentrations. The class given is biochemical.

T1 sequence (Q9Y6K1 whole entry, looked up): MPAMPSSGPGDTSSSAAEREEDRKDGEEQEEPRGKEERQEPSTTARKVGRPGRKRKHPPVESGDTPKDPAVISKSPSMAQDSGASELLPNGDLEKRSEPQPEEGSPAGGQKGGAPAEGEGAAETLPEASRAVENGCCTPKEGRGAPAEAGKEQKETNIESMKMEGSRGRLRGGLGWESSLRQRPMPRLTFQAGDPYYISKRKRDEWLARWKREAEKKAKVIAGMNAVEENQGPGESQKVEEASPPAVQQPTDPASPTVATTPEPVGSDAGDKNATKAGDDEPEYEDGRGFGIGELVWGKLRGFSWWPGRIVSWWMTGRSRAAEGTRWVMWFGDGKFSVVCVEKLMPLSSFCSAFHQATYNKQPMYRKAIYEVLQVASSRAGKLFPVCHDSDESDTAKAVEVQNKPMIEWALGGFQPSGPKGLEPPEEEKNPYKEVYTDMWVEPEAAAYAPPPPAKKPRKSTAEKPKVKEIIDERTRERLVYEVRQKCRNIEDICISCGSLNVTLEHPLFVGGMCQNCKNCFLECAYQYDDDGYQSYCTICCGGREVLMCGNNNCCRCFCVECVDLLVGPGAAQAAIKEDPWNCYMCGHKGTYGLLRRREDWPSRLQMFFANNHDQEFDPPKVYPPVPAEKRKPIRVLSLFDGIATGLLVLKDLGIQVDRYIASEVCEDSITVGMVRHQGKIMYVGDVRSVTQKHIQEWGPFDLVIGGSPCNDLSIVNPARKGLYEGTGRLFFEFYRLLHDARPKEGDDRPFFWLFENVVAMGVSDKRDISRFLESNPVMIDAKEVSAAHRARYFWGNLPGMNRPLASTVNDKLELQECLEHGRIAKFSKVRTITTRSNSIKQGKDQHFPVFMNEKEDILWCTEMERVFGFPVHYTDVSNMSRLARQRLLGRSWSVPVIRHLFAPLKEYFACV

`CCCC(=O)OCCc1ccc(O)c(O)c1` [CHEMBL1950046, 3,4-Dihydroxyphenethyl butyrate]: the IC50 (in general, the concentration that gives 50% inhibition) was more than 150 µM on DNMT3A and approximately 39 µM on FRAP1 (mTOR).
